Results: ChEMBL document CHEMBL1128649, “CD45 protein tyrosine phosphatase: Determination of minimal peptide length for substrate recognition and synthesis of some tyrosine-based electrophiles as potential active-site directed irreversible inhibitors” (Bioorg Med Chem Lett, 1995)
The source made the active and inactive calls. The rule behind the calls is not given here. Non-standard residues stand in square brackets, D forms with d. Residues, ends and D or L forms follow the SMILES beside them. *: point of attachment. pY = N[C@@H](Cc1ccc(OP(=O)(O)O)cc1)C(=O)O; Cbz = O=C(OCc1ccccc1)*

T1: Receptor-type tyrosine-protein phosphatase C (Homo sapiens) (UniProt P08575)
T1 sequence (whole entry): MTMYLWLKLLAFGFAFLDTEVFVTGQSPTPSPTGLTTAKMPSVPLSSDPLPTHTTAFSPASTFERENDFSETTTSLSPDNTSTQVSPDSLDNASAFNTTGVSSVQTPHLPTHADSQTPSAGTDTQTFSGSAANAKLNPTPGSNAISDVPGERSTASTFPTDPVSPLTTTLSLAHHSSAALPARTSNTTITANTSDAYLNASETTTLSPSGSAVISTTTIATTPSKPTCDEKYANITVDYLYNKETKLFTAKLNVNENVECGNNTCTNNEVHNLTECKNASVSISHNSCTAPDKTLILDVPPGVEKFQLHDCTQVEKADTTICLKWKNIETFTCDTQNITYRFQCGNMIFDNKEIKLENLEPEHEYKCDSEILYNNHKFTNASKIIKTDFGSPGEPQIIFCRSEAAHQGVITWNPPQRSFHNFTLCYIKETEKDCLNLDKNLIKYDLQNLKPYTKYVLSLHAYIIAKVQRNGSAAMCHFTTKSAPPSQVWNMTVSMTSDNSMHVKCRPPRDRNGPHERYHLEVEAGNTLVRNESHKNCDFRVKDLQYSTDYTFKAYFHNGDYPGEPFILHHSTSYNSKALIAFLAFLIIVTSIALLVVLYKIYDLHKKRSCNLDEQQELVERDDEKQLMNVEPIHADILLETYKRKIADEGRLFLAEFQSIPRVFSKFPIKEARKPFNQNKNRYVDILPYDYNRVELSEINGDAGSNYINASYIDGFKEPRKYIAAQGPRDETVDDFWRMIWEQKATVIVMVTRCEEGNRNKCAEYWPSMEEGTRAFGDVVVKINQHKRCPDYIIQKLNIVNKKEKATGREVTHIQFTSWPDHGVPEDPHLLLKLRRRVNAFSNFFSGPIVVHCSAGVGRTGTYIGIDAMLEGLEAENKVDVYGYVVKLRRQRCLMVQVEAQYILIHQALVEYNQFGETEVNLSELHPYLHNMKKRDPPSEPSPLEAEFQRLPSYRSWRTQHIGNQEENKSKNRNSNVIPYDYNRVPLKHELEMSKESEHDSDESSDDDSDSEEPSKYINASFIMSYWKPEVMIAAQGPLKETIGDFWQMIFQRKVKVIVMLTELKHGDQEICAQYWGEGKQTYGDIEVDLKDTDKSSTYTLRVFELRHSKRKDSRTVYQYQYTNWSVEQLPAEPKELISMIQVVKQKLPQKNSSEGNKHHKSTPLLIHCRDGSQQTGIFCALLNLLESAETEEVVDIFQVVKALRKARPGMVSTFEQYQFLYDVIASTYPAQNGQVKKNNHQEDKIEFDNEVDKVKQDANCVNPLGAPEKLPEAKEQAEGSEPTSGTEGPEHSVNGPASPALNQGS

B1: Receptor-type tyrosine-protein phosphatase C (Homo sapiens), P08575 (protein)
chain: T1 sequence (whole entry)

Assays:
[1] = molecular target: T1, Receptor-type tyrosine-protein phosphatase C (Homo sapiens); assay: (§1) Kinetic constant for CD45 protein tyrosine phosphatase inhibition was evaluated using malachite green assay
[2] = molecular target: T1, Receptor-type tyrosine-protein phosphatase C (Homo sapiens); assay: Compound was evaluated for inhibitory activity against CD45 protein tyrosine phosphatase at a concentration of 200 uM; no activity
[3] = molecular target: T1, Receptor-type tyrosine-protein phosphatase C (Homo sapiens); assay: (§2) Kinetic constant for CD45 Protein-tyrosine phosphatase inhibition was evaluated using malachite green assay
[4] = compound: CC(=O)N[C@@H](CCC(=O)O)C(=O)N1CCC[C@H]1C(=O)N[C@@H](CCC(N)=O)C(=O)N[C@@H](Cc1ccc(OP(=O)(O)O)cc1)C(=O)N[C@@H](CCC(N)=O)C(=O)N1CCC[C@H]1C(=O)NCC(=O)N[C@@H](CCC(N)=O)C(=O)N[C@@H](CC(N)=O)C(=O)N[C@@H](CC(C)C)C(N)=O; assay: as §1
[5] = compound: CC(=O)N[C@@H](C)C(=O)N[C@H](C(=O)N[C@@H](CCC(=O)O)C(=O)N1CCC[C@H]1C(=O)N[C@@H](CCC(N)=O)C(=O)N[C@@H](Cc1ccc(OP(=O)(O)O)cc1)C(=O)N[C@@H](CCC(N)=O)C(=O)N1CCC[C@H]1C(=O)NCC(=O)N[C@@H](CCC(N)=O)C(=O)N[C@@H](CC(N)=O)C(=O)N[C@@H](CC(C)C)C(N)=O)[C@@H](C)O; assay: as §1
[6] = compound: CC(=O)N[C@@H](CCC(N)=O)C(=O)N[C@@H](Cc1ccc(OP(=O)(O)O)cc1)C(=O)N[C@@H](CCC(N)=O)C(=O)N1CCC[C@@H]1C(N)=O; assay: as §1
[7] = compound: CC(=O)N1CCC[C@H]1C(=O)N[C@@H](CCC(N)=O)C(=O)N[C@@H](Cc1ccc(OP(=O)(O)O)cc1)C(=O)N[C@@H](CCC(N)=O)C(=O)N1CCC[C@@H]1C(N)=O; assay: as §1
[8] = compound: CC(=O)N[C@@H](CCC(N)=O)C(=O)N[C@@H](Cc1ccc(OP(=O)(O)O)cc1)C(=O)N[C@@H](CCC(N)=O)C(=O)N1CCC[C@H]1C(=O)NCC(=O)N[C@@H](CCC(N)=O)C(=O)N[C@@H](CC(N)=O)C(=O)N[C@@H](CC(C)C)C(N)=O; assay: as §1
[9] = compound: CC(=O)N1CCC[C@H]1C(=O)N[C@@H](CCC(N)=O)C(=O)N[C@@H](Cc1ccc(OP(=O)(O)O)cc1)C(=O)N[C@@H](CCC(N)=O)C(N)=O; assay: as §1
[10] = compound: CC(=O)N[C@@H](Cc1ccc(OP(=O)(O)O)cc1)C(N)=O; assay: as §1
[11] = compound: O=[N+]([O-])c1ccc(OP(=O)(O)O)cc1; assay: as §1
[12] = compound: CC(=O)N[C@@H](Cc1ccccc1)C(=O)N[C@H](C(=O)N[C@@H](C)C(=O)N[C@H](C(=O)N[C@@H](CCC(=O)O)C(=O)N1CCC[C@H]1C(=O)N[C@@H](CCC(N)=O)C(=O)N[C@@H](Cc1ccc(OP(=O)(O)O)cc1)C(=O)N[C@@H](CCC(N)=O)C(=O)N1CCC[C@H]1C(=O)NCC(=O)N[C@@H](CCC(N)=O)C(=O)N[C@@H](CC(N)=O)C(=O)N[C@@H](CC(C)C)C(N)=O)[C@@H](C)O)[C@@H](C)O; assay: as §2

Row | Molecule | k cat [1] | Activity [2] | further results
1 | CC(=O)N1CCC[C@H]1C(=O)N[C@@H](CCC(N)=O)C(=O)N[C@@H](Cc1ccc(OP(=O)(O)O)cc1)C(=O)N[C@@H](CCC(N)=O)C(N)=O (Ac-PQ[pY]Q-NH2) | 3.95 s⁻¹ |  | 
2 | CC(=O)N[C@@H](CCC(N)=O)C(=O)N[C@@H](Cc1ccc(OP(=O)(O)O)cc1)C(=O)N[C@@H](CCC(N)=O)C(=O)N1CCC[C@H]1C(=O)NCC(=O)N[C@@H](CCC(N)=O)C(=O)N[C@@H](CC(N)=O)C(=O)N[C@@H](CC(C)C)C(N)=O (Ac-Q[pY]QPGQNL-NH2) | 4.82 s⁻¹ |  | 
3 | CC(=O)N[C@@H](CCC(=O)O)C(=O)N1CCC[C@H]1C(=O)N[C@@H](CCC(N)=O)C(=O)N[C@@H](Cc1ccc(OP(=O)(O)O)cc1)C(=O)N[C@@H](CCC(N)=O)C(=O)N1CCC[C@H]1C(=O)NCC(=O)N[C@@H](CCC(N)=O)C(=O)N[C@@H](CC(N)=O)C(=O)N[C@@H](CC(C)C)C(N)=O (Ac-EPQ[pY]QPGQNL-NH2) | 4.22 s⁻¹ |  | 
4 | NC(=O)[C@H](Cc1ccc(OC[C@@H]2CO2)cc1)NC(=O)OCc1ccccc1 |  | inactive | 
5 | NC(=O)[C@H](Cc1ccc(O)cc1)NC(=O)OCc1ccccc1 |  | inactive | 
6 | NC(=O)CC[C@H](NC(=O)[C@H](Cc1ccc(O)cc1)NC(=O)[C@H](CCC(N)=O)NC(=O)OCc1ccccc1)C(N)=O (Cbz-Gln-Tyr-Gln-NH2) |  | inactive | 
7 | NC(=O)[C@H](Cc1ccc(OP(=O)(O)CCl)cc1)NC(=O)OCc1ccccc1 |  | inactive | 
8 | CC(=O)N[C@@H](C)C(=O)N[C@H](C(=O)N[C@@H](CCC(=O)O)C(=O)N1CCC[C@H]1C(=O)N[C@@H](CCC(N)=O)C(=O)N[C@@H](Cc1ccc(OP(=O)(O)O)cc1)C(=O)N[C@@H](CCC(N)=O)C(=O)N1CCC[C@H]1C(=O)NCC(=O)N[C@@H](CCC(N)=O)C(=O)N[C@@H](CC(N)=O)C(=O)N[C@@H](CC(C)C)C(N)=O)[C@@H](C)O (Ac-ATEPQ[pY]QPGQNL-NH2) | 4.93 s⁻¹ |  | 
9 | NC(=O)[C@H](Cc1ccc(OC[C@H]2CO2)cc1)NC(=O)OCc1ccccc1 |  | inactive | 
10 | NC(=O)CC[C@H](NC(=O)[C@H](Cc1ccc(OC[C@@H]2CO2)cc1)NC(=O)[C@H](CCC(N)=O)NC(=O)OCc1ccccc1)C(N)=O |  | inactive | 
11 | CC(=O)N[C@@H](CCC(N)=O)C(=O)N[C@@H](Cc1ccc(OP(=O)(O)O)cc1)C(=O)N[C@@H](CCC(N)=O)C(=O)N1CCC[C@@H]1C(N)=O | 3.95 s⁻¹ |  | 
12 | CC(=O)N[C@@H](Cc1ccc(OP(=O)(O)O)cc1)C(N)=O | 3.95 s⁻¹ |  | 
13 | O=[N+]([O-])c1ccc(OP(=O)(O)O)cc1 | 3.95 s⁻¹ |  | 
14 | CC(=O)N1CCC[C@H]1C(=O)N[C@@H](CCC(N)=O)C(=O)N[C@@H](Cc1ccc(OP(=O)(O)O)cc1)C(=O)N[C@@H](CCC(N)=O)C(=O)N1CCC[C@@H]1C(N)=O | 3.95 s⁻¹ |  | 
15 | NC(=O)[C@H](Cc1ccc(OC(=O)CCl)cc1)NC(=O)OCc1ccccc1 |  | inactive | 
16 | CC(=O)N[C@@H](Cc1ccccc1)C(=O)N[C@H](C(=O)N[C@@H](C)C(=O)N[C@H](C(=O)N[C@@H](CCC(=O)O)C(=O)N1CCC[C@H]1C(=O)N[C@@H](CCC(N)=O)C(=O)N[C@@H](Cc1ccc(OP(=O)(O)O)cc1)C(=O)N[C@@H](CCC(N)=O)C(=O)N1CCC[C@H]1C(=O)NCC(=O)N[C@@H](CCC(N)=O)C(=O)N[C@@H](CC(N)=O)C(=O)N[C@@H](CC(C)C)C(N)=O)[C@@H](C)O)[C@@H](C)O (Ac-FTATEPQ[pY]QPGQNL-NH2) |  |  | k cat [3]: 3.95 s⁻¹
17 | B1 |  |  | Km [4]: 102 µM; Km [5]: 143 µM; Km [6]: 278 µM; Km [7]: 278 µM; Km [8]: 172 µM; Km [9]: 278 µM; Km [10]: 278 µM; Km [11]: 278 µM; Km [12]: 278 µM
